Data reported in US20210323977A1, “PYRROLIDINYL AMIDE COMPOUNDS FOR THE TREATMENT OF AUTOIMMUNE DISEASE” (Hoffmann-La Roche Inc., priority 2018, published 2021).

Molecular target: T1, human TLR8 (Homo sapiens, UniProt Q9NR97)
T1 sequence (Q9NR97 27-1041): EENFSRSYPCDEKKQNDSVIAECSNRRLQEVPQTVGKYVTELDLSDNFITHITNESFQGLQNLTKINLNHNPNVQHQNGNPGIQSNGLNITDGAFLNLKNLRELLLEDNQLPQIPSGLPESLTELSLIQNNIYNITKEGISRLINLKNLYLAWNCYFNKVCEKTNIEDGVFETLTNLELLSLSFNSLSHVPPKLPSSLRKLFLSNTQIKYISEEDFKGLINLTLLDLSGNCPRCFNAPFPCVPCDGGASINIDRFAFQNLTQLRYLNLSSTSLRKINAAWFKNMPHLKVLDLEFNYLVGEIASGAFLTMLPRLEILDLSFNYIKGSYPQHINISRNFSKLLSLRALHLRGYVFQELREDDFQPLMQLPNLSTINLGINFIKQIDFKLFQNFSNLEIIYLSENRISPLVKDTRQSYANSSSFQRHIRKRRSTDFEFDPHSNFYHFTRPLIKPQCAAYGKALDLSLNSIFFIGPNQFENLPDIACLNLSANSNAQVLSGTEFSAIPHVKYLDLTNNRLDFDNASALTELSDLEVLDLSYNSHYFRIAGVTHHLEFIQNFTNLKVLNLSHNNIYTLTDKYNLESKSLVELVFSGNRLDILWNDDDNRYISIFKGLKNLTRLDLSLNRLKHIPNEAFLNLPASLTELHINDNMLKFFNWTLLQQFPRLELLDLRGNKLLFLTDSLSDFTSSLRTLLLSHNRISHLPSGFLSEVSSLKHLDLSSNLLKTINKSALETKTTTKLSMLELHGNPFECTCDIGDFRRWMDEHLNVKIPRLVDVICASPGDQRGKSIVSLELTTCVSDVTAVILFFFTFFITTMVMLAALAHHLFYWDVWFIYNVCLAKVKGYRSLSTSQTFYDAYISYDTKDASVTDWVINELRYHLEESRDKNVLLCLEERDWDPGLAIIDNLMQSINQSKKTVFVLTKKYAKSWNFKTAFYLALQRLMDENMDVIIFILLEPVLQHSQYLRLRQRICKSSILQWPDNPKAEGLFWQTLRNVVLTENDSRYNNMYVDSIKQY
Assay: HEK293-Blue-hTLR-8 cells assay
Type: cell-based
Conditions: HEK293-Blue-hTLR8 cells, SEAP reporter, R848 stimulation, 20 hrs
From the text: HEK293-Blue-hTLR-8 Cells Assay:
A stable HEK293-Blue-hTLR-8 cell line was purchased from InvivoGen (Cat. #: hkb-htlr8, San Diego, Calif., USA). These cells were originally designed for studying the stimulation of human TLR8 by monitoring the activation of NF-κB. A SEAP (secreted embryonic alkaline phosphatase) reporter gene was placed under the control of the IFN-β minimal promoter fused to five NF-κB and AP-1-binding sites. The SEAP was induced by activating NF-κB and AP-1 via stimulating HEK-Blue hTLR8 cells with TLR8 ligands. Therefore the reporter expression was declined by TLR8 antagonist under the stimulation of a ligand, such as R848, for incubation of 20 hrs. The cell culture supernatant SEAP reporter activity was determined using QUANTI-Blue™ kit (Cat. #: rep-qb1, Invivogen, San Diego, Ca, USA) at a wavelength of 640 nm, a detection medium that turns purple or blue in the presence of alkaline phosphatase.
HEK293-Blue-hTLR8 cells were incubated at a density of 250,000-450,000 cells/mL in a volume of 170 μL in a 96-well plate in Dulbecco's Modified Eagle's medium (DMEM) containing 4.5 g/L glucose, 50 U/mL penicillin, […], […], 2 mM L-glutamine, 10% (v/v) heat-inactivated fetal bovine serum with addition of 20 μL test compound in a serial dilution in the presence of final DMSO at 1% and 10 sL of 60 uM R848 in above DMEM, perform incubation under 37° C. in a CO2 incubator for 20 hrs. Then 20 μL of the supernatant from each well was incubated with 180 sL Quanti-blue substrate solution at 37° C. for 2 hrs and the absorbance was read at 620˜655 nm using a spectrophotometer. The signalling pathway that TLR8 activation leads to downstream NF-κB activation has been widely accepted, and therefore similar reporter assay was modified for evaluating TLR8 antagonist.

| Structure (SMILES) | IC50 [nM] |
| --- | --- |
| N#Cc1ccc(N2CC(C(=O)NC[C@H]3CNCCO3)C3(CC3)C2)c2nccnc12 (single isomer, unassigned) [Example 70B] | 168 |
| N[C@H]1CC[C@H](NC(=O)C2CN(c3ccc(C(F)(F)F)c4nccnc34)CC23CC3)CC1 (some centres unmarked) [Example 24, N-(4-aminocyclohexyl)-5-[8-(trifluoromethyl)quinoxalin-5-yl]-5-azaspiro[2.4]heptane-7-carboxamide] | 175 |
| CC(C)[C@@H]1CN(c2ccc(C#N)c3ncccc23)C[C@H]1C(=O)NC1CCN(C)CC1 (relative stereo) [Example 37, Trans-1-(8-cyano-5-quinolyl)-4-isopropyl-N-(1-methyl-4-piperidyl)pyrrolidine-3-carboxamide] | 489 |

Other lines, results leading:

| IC50 [nM] | Structure (SMILES) |
| --- | --- |
| 172 | NC1CC(NC(=O)C2CN(c3ccc(C(F)(F)F)c4nccnc34)CC23CC3)C1 (centres unmarked) [Example 38, N-(3-Aminocyclobutyl)-5-[8-(trifluoromethyl)quinoxalin-5-yl]-5-azaspiro[2.4]heptane-7-carboxamide] |
| 437 | O=C(NC1CC2(CCNCC2)C1)C1CN(c2ccc(C(F)(F)F)c3nccnc23)CC12CC2 (centres unmarked) [Example 34, N-(7-azaspiro[3.5]nonan-2-yl)-5-[8-(trifluoromethyl)quinoxalin-5-yl]-5-azaspiro[2.4]heptane-7-carboxamide] |
